test system: CYPES; assay: Pre-emergence herbicidal action against harmful plants; type: in vivo; settings: dosage 20 g/ha, scored visually after 3 weeks
Protocol: (§1) 1. Pre-Emergence Herbicidal Action Against Harmful Plants
(§2) Seeds of monocotyledonous and dicotyledonous weed plants and crop plants are laid out in wood-fiber pots in sandy loam and covered with soil. […] The comparative tests were conducted by way of example on some weed plants and crop plants.

Compound	Activity against CYPES [%]
Cc1nnc(NC(=O)c2ccc(C(F)(F)F)c(S(C)(=O)=O)c2C)o1 [drawing 23]	70
Cc1nnc(NC(=O)c2ccc(C(F)(F)F)c(S(C)(=O)=O)c2C)o1 [drawing 24]	40
Cc1nnc([N-]C(=O)c2ccc(C(F)(F)F)c(S(C)(=O)=O)c2C)o1.[Na+] [drawing 25]	40
Cc1nnc(NC(=O)c2ccc(C(F)(F)F)c(S(C)(=O)=O)c2C)o1 [drawing 26]	40
Cc1nnc(NC(=O)c2ccc(C(F)(F)F)c(S(C)(=O)=O)c2C)o1 [drawing 27]	60
Cc1nnc(NC(=O)c2ccc(C(F)(F)F)c(S(C)(=O)=O)c2C)o1 [drawing 28]	40
Cc1nnc(NC(=O)c2ccc(C(F)(F)F)c(S(C)(=O)=O)c2C)o1 [drawing 29]	70
Cc1nnc(NC(=O)c2ccc(C(F)(F)F)c(S(C)(=O)=O)c2C)o1 [drawing 30]	40
Cc1nnc(NC(=O)c2ccc(C(F)(F)F)c([S+](C)[O-])c2Cl)o1 (stereo not drawn) [drawing 32]	60
Cc1nnc(NC(=O)c2ccc(C(F)(F)F)c([S+](C)[O-])c2Cl)o1 (stereo not drawn) [drawing 34]	60

same assay, conditions: dosage 320 g/ha, scored visually after 3 weeks

Compound	Activity against CYPES [%]
CCc1nnc([N-]C(=O)c2ccc(S(=O)(=O)CC)c(C3=NOC(COC)C3)c2Cl)o1.[Na+] (stereo not drawn)	80
CCc1nnc(NC(=O)c2ccc(S(=O)(=O)CC)c(C3=NOC(COC)C3)c2Cl)o1 (stereo not drawn) [drawing 36]	80
CCc1nnc(NC(=O)c2ccc(S(=O)(=O)CC)c(C3=NOC(COC)C3)c2Cl)o1 (stereo not drawn) [drawing 37]	100
CCc1nnc(NC(=O)c2ccc(S(=O)(=O)CC)c(C3=NOC(COC)C3)c2Cl)o1 (stereo not drawn) [drawing 38]	80

test system: ALOMY; assay: as above; type: in vivo; settings: dosage 20 g/ha, scored visually after 3 weeks
Protocol: as §1, §2

Compound	Activity against ALOMY [%]
Cc1nnc(NC(=O)c2ccc(C(F)(F)F)c(S(C)(=O)=O)c2C)o1 [drawing 23]	70
Cc1nnc(NC(=O)c2ccc(C(F)(F)F)c(S(C)(=O)=O)c2C)o1 [drawing 24]	20
Cc1nnc([N-]C(=O)c2ccc(C(F)(F)F)c(S(C)(=O)=O)c2C)o1.[Na+] [drawing 25]	60
Cc1nnc(NC(=O)c2ccc(C(F)(F)F)c(S(C)(=O)=O)c2C)o1 [drawing 26]	20
Cc1nnc(NC(=O)c2ccc(C(F)(F)F)c(S(C)(=O)=O)c2C)o1 [drawing 27]	60
Cc1nnc(NC(=O)c2ccc(C(F)(F)F)c(S(C)(=O)=O)c2C)o1 [drawing 28]	20
Cc1nnc(NC(=O)c2ccc(C(F)(F)F)c(S(C)(=O)=O)c2C)o1 [drawing 29]	10
Cc1nnc(NC(=O)c2ccc(C(F)(F)F)c(S(C)(=O)=O)c2C)o1 [drawing 30]	20
Cc1nnc(NC(=O)c2ccc(C(F)(F)F)c([S+](C)[O-])c2Cl)o1 (stereo not drawn) [drawing 32]	20
Cc1nnc(NC(=O)c2ccc(C(F)(F)F)c([S+](C)[O-])c2Cl)o1 (stereo not drawn) [drawing 33]	60
Cc1nnc(NC(=O)c2ccc(C(F)(F)F)c([S+](C)[O-])c2Cl)o1 (stereo not drawn) [drawing 34]	20

same assay, conditions: dosage 320 g/ha, scored visually after 3 weeks

Compound	Activity against ALOMY [%]
CCc1nnc([N-]C(=O)c2ccc(S(=O)(=O)CC)c(C3=NOC(COC)C3)c2Cl)o1.[Na+] (stereo not drawn)	30
CCc1nnc(NC(=O)c2ccc(S(=O)(=O)CC)c(C3=NOC(COC)C3)c2Cl)o1 (stereo not drawn) [drawing 36]	10
CCc1nnc(NC(=O)c2ccc(S(=O)(=O)CC)c(C3=NOC(COC)C3)c2Cl)o1 (stereo not drawn) [drawing 37]	20
CCc1nnc(NC(=O)c2ccc(S(=O)(=O)CC)c(C3=NOC(COC)C3)c2Cl)o1 (stereo not drawn) [drawing 38]	10

test system: VERPE; assay: Post-emergence herbicidal action against harmful plants; type: in vivo; settings: dosage 5 g/ha, assessed visually after about 3 weeks
Protocol: (§3) 2. Post-Emergence Herbicidal Action Against Harmful Plants
(§4) Seeds of monocotyledonous and dicotyledonous weed and crop plants are laid out in sandy loam in wood-fiber pots, covered with soil and cultivated in a greenhouse under good growth conditions. 2 to 3 weeks after sowing, the test plants are treated at the one-leaf stage.

Compound	Activity against VERPE [%]
Cc1nnc([N-]C(=O)c2ccc(C(F)(F)F)c([S+](C)[O-])c2Cl)o1.[Na+] (stereo not drawn)	70
Cc1nnc([N-]C(=O)c2ccc(C(F)(F)F)c(S(C)(=O)=O)c2C)o1.[Na+] [drawing 51]	100
Cc1nnc(NC(=O)c2ccc(C(F)(F)F)c(S(C)(=O)=O)c2C)o1 [drawing 52, reference compound]	60
Cc1nnc(NC(=O)c2ccc(C(F)(F)F)c(S(C)(=O)=O)c2C)o1 [drawing 53]	90
Cc1nnc(NC(=O)c2ccc(C(F)(F)F)c(S(C)(=O)=O)c2C)o1 [drawing 54, reference compound]	60
Cc1nnc(NC(=O)c2ccc(C(F)(F)F)c([S+](C)[O-])c2C)o1 (stereo not drawn) [drawing 56, reference compound]	50
Cc1nnc(NC(=O)c2ccc(C(F)(F)F)c([S+](C)[O-])c2Cl)o1 (stereo not drawn) [drawing 57]	80
Cc1nnc(NC(=O)c2ccc(C(F)(F)F)c([S+](C)[O-])c2C)o1 (stereo not drawn) [drawing 58, reference compound]	50

test system: ALOMY; assay: as above; type: in vivo; settings: dosage 5 g/ha, assessed visually after about 3 weeks
Protocol: as §3, §4

Compound	Activity against ALOMY [%]
Cc1nnc([N-]C(=O)c2ccc(C(F)(F)F)c(S(C)(=O)=O)c2C)o1.[Na+] [drawing 51]	80
Cc1nnc(NC(=O)c2ccc(C(F)(F)F)c(S(C)(=O)=O)c2C)o1 [drawing 52, reference compound]	60
Cc1nnc(NC(=O)c2ccc(C(F)(F)F)c(S(C)(=O)=O)c2C)o1 [drawing 53]	80
Cc1nnc(NC(=O)c2ccc(C(F)(F)F)c(S(C)(=O)=O)c2C)o1 [drawing 54, reference compound]	60
Cc1nnc(NC(=O)c2ccc(C(F)(F)F)c([S+](C)[O-])c2C)o1 (stereo not drawn) [drawing 56, reference compound]	60
Cc1nnc(NC(=O)c2ccc(C(F)(F)F)c([S+](C)[O-])c2C)o1 (stereo not drawn) [drawing 58, reference compound]	60

test system: TRZAS; assay: Pre-emergence damage to crop plants; type: in vivo; settings: dosage 20 g/ha, scored visually after 3 weeks
Description: as §1

Compound	Damage to TRZAS [%]
Cc1nnc([N-]C(=O)c2ccc(C(F)(F)F)c(S(C)(=O)=O)c2C)o1.[Na+] [drawing 7]	0
Cc1nnc([N-]C(=O)c2ccc(C(F)(F)F)c(S(C)(=O)=O)c2C)o1.[K+] [drawing 9]	0

test system: ZEAMX; assay: not given; settings: pre-emergence, dosage 20 g/ha, scored visually after 3 weeks
Protocol: as §1, §2

Compound	Damage to ZEAMX [%]
Cc1nnc([N-]C(=O)c2ccc(C(F)(F)F)c(S(C)(=O)=O)c2C)o1.[Na+] [drawing 25]	0

same assay, conditions: pre-emergence, dosage 320 g/ha, scored visually after 3 weeks

Compound	Damage to ZEAMX [%]
CCc1nnc([N-]C(=O)c2ccc(S(=O)(=O)CC)c(C3=NOC(COC)C3)c2Cl)o1.[Na+] (stereo not drawn)	0
CCc1nnc(NC(=O)c2ccc(S(=O)(=O)CC)c(C3=NOC(COC)C3)c2Cl)o1 (stereo not drawn) [drawing 37]	10

test system: ABUTH; assay: Pre-emergence herbicidal action against harmful plants; type: in vivo, Abutilon theophrasti; settings: dosage 20 g/ha, scored visually after 3 weeks, 100% = plants have died, 0% = like control plants
Protocol: as §1, §2

Compound	Activity against ABUTH [%]
Cc1nnc([N-]C(=O)c2ccc(C(F)(F)F)c(S(C)(=O)=O)c2C)o1.[Na+] [drawing 7]	100
Cc1nnc(NC(=O)c2ccc(C(F)(F)F)c(S(C)(=O)=O)c2C)o1 [drawing 8]	70
Cc1nnc(NC(=O)c2ccc(C(F)(F)F)c(S(C)(=O)=O)c2C)o1 [drawing 13]	100
Cc1nnc(NC(=O)c2ccc(C(F)(F)F)c(S(C)(=O)=O)c2C)o1 [drawing 14]	70
Cc1nnc(NC(=O)c2ccc(C(F)(F)F)c(S(C)(=O)=O)c2C)o1 [drawing 15]	100
Cc1nnc(NC(=O)c2ccc(C(F)(F)F)c(S(C)(=O)=O)c2C)o1 [drawing 16]	70
Cc1nnc(NC(=O)c2ccc(C(F)(F)F)c(S(C)(=O)=O)c2C)o1 [drawing 17]	100
Cc1nnc(NC(=O)c2ccc(C(F)(F)F)c(S(C)(=O)=O)c2C)o1 [drawing 18]	70
Cc1nnc(NC(=O)c2ccc(C(F)(F)F)c(S(C)(=O)=O)c2C)o1 [drawing 19]	100
Cc1nnc(NC(=O)c2ccc(C(F)(F)F)c(S(C)(=O)=O)c2C)o1 [drawing 20]	70
Cc1nnc(NC(=O)c2ccc(C(F)(F)F)c(S(C)(=O)=O)c2C)o1 [drawing 21]	100
Cc1nnc(NC(=O)c2ccc(C(F)(F)F)c(S(C)(=O)=O)c2C)o1 [drawing 22]	70
Cc1nnc(NC(=O)c2ccc(C(F)(F)F)c(S(C)(=O)=O)c2C)o1 [drawing 23]	100
Cc1nnc(NC(=O)c2ccc(C(F)(F)F)c(S(C)(=O)=O)c2C)o1 [drawing 24]	70
Cc1nnc(NC(=O)c2ccc(C(F)(F)F)c(S(C)(=O)=O)c2C)o1 [drawing 26]	70
Cc1nnc(NC(=O)c2ccc(C(F)(F)F)c(S(C)(=O)=O)c2C)o1 [drawing 27]	100
Cc1nnc(NC(=O)c2ccc(C(F)(F)F)c(S(C)(=O)=O)c2C)o1 [drawing 28]	70
Cc1nnc(NC(=O)c2ccc(C(F)(F)F)c(S(C)(=O)=O)c2C)o1 [drawing 29]	100
Cc1nnc(NC(=O)c2ccc(C(F)(F)F)c(S(C)(=O)=O)c2C)o1 [drawing 30]	70
Cc1nnc(NC(=O)c2ccc(C(F)(F)F)c([S+](C)[O-])c2Cl)o1 (stereo not drawn) [drawing 32]	60
Cc1nnc(NC(=O)c2ccc(C(F)(F)F)c([S+](C)[O-])c2Cl)o1 (stereo not drawn) [drawing 34]	60

same assay, conditions: dosage 320 g/ha, scored visually after 3 weeks

Compound	Activity against ABUTH [%]
CCc1nnc([N-]C(=O)c2ccc(S(=O)(=O)CC)c(C3=NOC(COC)C3)c2Cl)o1.[Na+] (stereo not drawn)	90
CCc1nnc(NC(=O)c2ccc(S(=O)(=O)CC)c(C3=NOC(COC)C3)c2Cl)o1 (stereo not drawn) [drawing 36]	90
CCc1nnc(NC(=O)c2ccc(S(=O)(=O)CC)c(C3=NOC(COC)C3)c2Cl)o1 (stereo not drawn) [drawing 37]	80
CCc1nnc(NC(=O)c2ccc(S(=O)(=O)CC)c(C3=NOC(COC)C3)c2Cl)o1 (stereo not drawn) [drawing 38]	10

test system: TRZAS; assay: Post-emergence damage to crop plants; type: in vivo; settings: dosage 5 g/ha, assessed visually after about 3 weeks
Protocol: as §3, §4

Compound	Damage to TRZAS [%]
Cc1nnc([N-]C(=O)c2ccc(C(F)(F)F)c([S+](C)[O-])c2Cl)o1.[Na+] (stereo not drawn)	0
Cc1nnc([N-]C(=O)c2ccc(C(F)(F)F)c(S(C)(=O)=O)c2C)o1.[Na+] [drawing 51]	0

test system: ZEAMX; assay: Post-emergence damage to crop plants; type: in vivo; settings: dosage 5 g/ha, assessed visually after about 3 weeks
Protocol: as §3, §4

Compound	Damage to ZEAMX [%]
Cc1nnc([N-]C(=O)c2ccc(C(F)(F)F)c(S(C)(=O)=O)c2C)o1.[Na+] [drawing 39]	0
Cc1nnc([N-]C(=O)c2ccc(C(F)(F)F)c(S(C)(=O)=O)c2C)o1.[K+] [drawing 47]	0

test system: AMARE; assay: Post-emergence herbicidal action against harmful plants; type: in vivo, Amaranthus retroflexus; settings: dosage 5 g/ha, assessed visually after about 3 weeks
Protocol: as §3, §4

Compound	Activity against AMARE [%]
Cc1nnc([N-]C(=O)c2ccc(C(F)(F)F)c(S(C)(=O)=O)c2C)o1.[Na+] [drawing 39]	100
Cc1nnc(NC(=O)c2ccc(C(F)(F)F)c(S(C)(=O)=O)c2C)o1 [drawing 40, reference compound]	80
Cc1nnc(NC(=O)c2ccc(C(F)(F)F)c(S(C)(=O)=O)c2C)o1 [drawing 41]	100
Cc1nnc(NC(=O)c2ccc(C(F)(F)F)c(S(C)(=O)=O)c2C)o1 [drawing 42, reference compound]	80
Cc1nnc(NC(=O)c2ccc(C(F)(F)F)c(S(C)(=O)=O)c2C)o1 [drawing 43]	100
Cc1nnc(NC(=O)c2ccc(C(F)(F)F)c(S(C)(=O)=O)c2C)o1 [drawing 44, reference compound]	80
Cc1nnc(NC(=O)c2ccc(C(F)(F)F)c(S(C)(=O)=O)c2C)o1 [drawing 45]	100
Cc1nnc(NC(=O)c2ccc(C(F)(F)F)c(S(C)(=O)=O)c2C)o1 [drawing 46, reference compound]	80
Cc1nnc([N-]C(=O)c2ccc(C(F)(F)F)c(S(C)(=O)=O)c2C)o1.[K+] [drawing 47]	60
Cc1nnc(NC(=O)c2ccc(C(F)(F)F)c(S(C)(=O)=O)c2C)o1 [drawing 48, reference compound]	40
Cc1nnc(NC(=O)c2ccc(C(F)(F)F)c(S(C)(=O)=O)c2C)o1 [drawing 49]	60
Cc1nnc(NC(=O)c2ccc(C(F)(F)F)c(S(C)(=O)=O)c2C)o1 [drawing 50, reference compound]	40

test system: STEME; assay: Pre-emergence herbicidal action against harmful plants; type: in vivo, Stellaria media; settings: dosage 20 g/ha, scored visually after 3 weeks
Description: as §1

Compound	Activity against STEME [%]
Cc1nnc([N-]C(=O)c2ccc(C(F)(F)F)c(S(C)(=O)=O)c2C)o1.[K+] [drawing 9]	90
Cc1nnc(NC(=O)c2ccc(C(F)(F)F)c(S(C)(=O)=O)c2C)o1 [drawing 10, reference compound]	70
Cc1nnc(NC(=O)c2ccc(C(F)(F)F)c(S(C)(=O)=O)c2C)o1 [drawing 11]	90
Cc1nnc(NC(=O)c2ccc(C(F)(F)F)c(S(C)(=O)=O)c2C)o1 [drawing 12, reference compound]	70

From patent US10433553B2, “Salts of N-(1,3,4-oxadiazol-2-yl) aryl carboxylic acid amides and the use of same as herbicides” (BAYER CROPSCIENCE AKTIENGESELLSCHAFT, priority 2015, dated 2019)
